target: T1, STING (Homo sapiens, UniProt Q86WV6, G230A/H232R/R293Q/R71H); test: STING reporter assay: luciferase reporter activity in THP1-Dual KO-IFNAR2 cells stimulated with 2′3′cGAMP; assay type: cell-based; settings: 15 μM 2′3′cGAMP, 24h, read-out: hSTING EC50
T1 construct: host or cells: THP1-Dual KO-IFNAR2 cells
Method in brief: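 THP1-Dual KO-IFNAR2 cells (2×10E6 cells/mL) were exposed to compounds at 0.0017-100 μM, then stimulated with 2′3′cGAMP (15 μM final) transfected via Lipofectamine 2000. After 24h at 37° C., secreted luciferase in supernatant was read by QUANTI-Luc luminescence; EC50 derived from concentration-response.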

T1 sequence (Q86WV6 whole entry R71H/G230A/H232R/R293Q): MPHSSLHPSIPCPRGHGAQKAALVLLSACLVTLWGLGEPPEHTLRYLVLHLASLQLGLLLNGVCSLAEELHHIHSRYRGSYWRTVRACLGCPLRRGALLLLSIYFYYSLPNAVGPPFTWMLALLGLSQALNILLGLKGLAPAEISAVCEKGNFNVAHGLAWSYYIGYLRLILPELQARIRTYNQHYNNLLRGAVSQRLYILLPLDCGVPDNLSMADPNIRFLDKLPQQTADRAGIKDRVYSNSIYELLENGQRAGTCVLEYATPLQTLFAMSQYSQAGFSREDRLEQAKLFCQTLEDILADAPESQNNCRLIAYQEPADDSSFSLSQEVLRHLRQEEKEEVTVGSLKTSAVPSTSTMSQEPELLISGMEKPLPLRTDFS

Row | Compound | EC50
1 | CC(NS(C)(=O)=O)C(=O)Nc1c[nH]c2cc(F)c(-c3cnn(-c4ccc(C(F)(F)F)cc4)c3)cc12 (centres unmarked) [Compound 193, N-(6-fluoro-5-(1-(4-(trifluoromethyl)phenyl)-1H-pyrazol-4-yl)-1H-indol-3-yl)-2-(methylsulfonamido)propanamide] | 1 to 5 µM
2 | CC(C)(C#N)C(=O)Nc1c[nH]c2ccc(-c3cnn(-c4ccc(C(F)(F)F)cc4)c3)cc12 [Compound 228, 2-cyano-2-methyl-N-(5-(1-(4-(trifluoromethyl)phenyl)-1H-pyrazol-4-yl)-1H-indol-3-yl)propanamide] | 1 to 5 µM
3 | CCC(=O)Nc1c[nH]c2ccc(-c3ccn(-c4ccc(C(F)(F)F)cc4)n3)cc12 [Compound 117, N-(5-(1-(4-(trifluoromethyl)phenyl)-1H-pyrazol-3-yl)-1H-indol-3-yl)propionamide] | 1 to 5 µM
4 | CCc1ccc(-n2cc(-c3ccc4[nH]cc(NC(=O)C5CCCCO5)c4c3)cn2)cc1 (centres unmarked) [Compound 165, N-(5-(1-(4-ethylphenyl)-1H-pyrazol-4-yl)-1H-indol-3-yl)tetrahydro-2H-pyran-2-carboxamide] | 0.2 to 1 µM
5 | CC(=O)Nc1c[nH]c2ccc(-c3cnn([C@@H](C)c4cccc(C(F)(F)F)c4)c3)cc12 [Compound 175, (S)-N-(5-(1-(1-(3-(trifluoromethyl)phenyl)ethyl)-1H-pyrazol-4-yl)-1H-indol-3-yl)acetamide] | 0.2 to 1 µM
6 | O=C(CCC(F)(F)F)Nc1c[nH]c2ccc(-c3cnn(-c4ccc(C(F)(F)F)cc4)c3)cc12 [Compound 214, 4,4,4-trifluoro-N-(5-(1-(4-(trifluoromethyl)phenyl)-1H-pyrazol-4-yl)-1H-indol-3-yl)butanamide] | 0.2 to 1 µM
7 | O=C1NCCC1C(=O)Nc1c[nH]c2ccc(-c3cnn(-c4ccc(C(F)(F)F)cc4)c3)cc12 (centres unmarked) [Compound 210, 2-oxo-N-(5-(1-(4-(trifluoromethyl)phenyl)-1H-pyrazol-4-yl)-1H-indol-3-yl)pyrrolidine-3-carboxamide] | 5 to 100 µM
8 | O=C1CCC(C(=O)Nc2c[nH]c3ccc(-c4cnn(-c5ccc(C(F)(F)F)cc5)c4)cc23)=NN1 [Compound 234, 6-oxo-N-(5-(1-(4-(trifluoromethyl)phenyl)-1H-pyrazol-4-yl)-1H-indol-3-yl)-1,4,5,6-tetrahydropyridazine-3-carboxamide] | 1 to 5 µM
9 | O=C(Nc1c[nH]c2ccc(-c3cnn(-c4ccc(C(F)(F)F)cc4)c3)cc12)c1cscn1 [Compound 275, N-(5-(1-(4-(trifluoromethyl)phenyl)-1H-pyrazol-4-yl)-1H-indol-3-yl)thiazole-4-carboxamide] | 1 to 5 µM
10 | CCC(=O)Nc1c[nH]c2ccc(-c3cnn(-c4ccc(C(F)(F)F)cn4)c3)cc12 [Compound 105, N-(5-(1-(5-(trifluoromethyl)pyridin-2-yl)-1H-pyrazol-4-yl)-1H-indol-3-yl)propionamide] | 0.2 to 1 µM
11 | CC(=O)N(C)c1c[nH]c2ccc(-c3cnn(-c4ccc(C(F)(F)F)cc4)c3)cc12 [Compound 246, N-methyl-N-(5-(1-(4-(trifluoromethyl)phenyl)-1H-pyrazol-4-yl)-1H-indol-3-yl)acetamide] | 5 to 100 µM
12 | O=C(Nc1c[nH]c2ccc(-c3cnn(-c4ccc(C(F)(F)F)cc4)c3)cc12)c1cnco1 [Compound 263, N-(5-(1-(4-(trifluoromethyl)phenyl)-1H-pyrazol-4-yl)-1H-indol-3-yl)oxazole-5-carboxamide] | 0.2 to 1 µM
13 | CC(=O)N1CC(C(=O)Nc2c[nH]c3ccc(-c4cnn(-c5ccc(C(F)(F)F)cc5)c4)cc23)C1 [Compound 223, 1-acetyl-N-(5-(1-(4-(trifluoromethyl)phenyl)-1H-pyrazol-4-yl)-1H-indol-3-yl)azetidine-3-carboxamide] | 1 to 5 µM
14 | CCC(=O)Nc1c[nH]c2ccc(-c3cnn(-c4ccc(OCC(F)(F)F)cc4)c3)cc12 [Compound 110, N-(5-(1-(4-(2,2,2-trifluoroethoxy)phenyl)-1H-pyrazol-4-yl)-1H-indol-3-yl)propionamide] | 0.04 to 0.2 µM
15 | CN1C(=O)CCC1C(=O)Nc1c[nH]c2ccc(-c3cnn(-c4ccc(C(F)(F)F)cc4)c3)cc12 (centres unmarked) [Compound 252, 1-methyl-5-oxo-N-(5-(1-(4-(trifluoromethyl)phenyl)-1H-pyrazol-4-yl)-1H-indol-3-yl)pyrrolidine-2-carboxamide] | 1 to 5 µM
16 | CC(=O)Nc1c[nH]c2ccc(-c3cnn(Cc4cnc(C5CCC(F)(F)CC5)c(F)c4)c3)cc12 [Compound 250, N-(5-(1-((6-(4,4-difluorocyclohexyl)-5-fluoropyridin-3-yl)methyl)-1H-pyrazol-4-yl)-1H-indol-3-yl)acetamide] | 5 to 100 µM
17 | CCC(=O)Nc1c[nH]c2ccc(-c3cnn(C4CCCC4)c3)cc12 [Compound 137, N-(5-(1-cyclopentyl-1H-pyrazol-4-yl)-1H-indol-3-yl)propionamide] | 5 to 100 µM
18 | O=C(Nc1c[nH]c2ccc(-c3cnn(-c4ccc(C(F)(F)F)cc4)c3)cc12)C1CN(CC(F)(F)F)C1 [Compound 247, 1-(2,2,2-trifluoroethyl)-N-(5-(1-(4-(trifluoromethyl)phenyl)-1H-pyrazol-4-yl)-1H-indol-3-yl)azetidine-3-carboxamide] | 0.2 to 1 µM

Row | Compound | EC50
19 | CC(=O)N1CCCC1C(=O)Nc1c[nH]c2ccc(-c3cnn(-c4ccc(C(F)(F)F)cc4)c3)cc12 (centres unmarked) [Compound 226, 1-acetyl-N-(5-(1-(4-(trifluoromethyl)phenyl)-1H-pyrazol-4-yl)-1H-indol-3-yl)pyrrolidine-2-carboxamide] | 1 to 5 µM
20 | O=C(Nc1c[nH]c2ccc(-c3cnn(-c4ccc(C(F)(F)F)cc4)c3)cc12)C1CS(=O)(=O)C1 [Compound 213, N-(5-(1-(4-(trifluoromethyl)phenyl)-1H-pyrazol-4-yl)-1H-indol-3-yl)thietane-3-carboxamide 1,1-dioxide] | 0.2 to 1 µM
21 | CCc1ccc(-n2cc(-c3ccc4[nH]cc(NC(=O)C5CCN(C(=O)OC(C)(C)C)C5)c4c3)cn2)cc1 (centres unmarked) [Compound 108, tert-butyl 3-((5-(1-(4-ethylphenyl)-1H-pyrazol-4-yl)-1H-indol-3-yl)carbamoyl)pyrrolidine-1-carboxylate] | 0.2 to 1 µM
22 | CCc1ccc(-n2cc(-c3ccc4[nH]cc(NC(C)=O)c4c3)cn2)cc1 [Compound 134, N-(5-(1-(4-ethylphenyl)-1H-pyrazol-4-yl)-1H-indol-3-yl)acetamide] | 0.04 to 0.2 µM
23 | CN1CCC1C(=O)Nc1c[nH]c2ccc(-c3cnn(-c4ccc(C(F)(F)F)cc4)c3)cc12 (centres unmarked) [Compound 254, 1-methyl-N-(5-(1-(4-(trifluoromethyl)phenyl)-1H-pyrazol-4-yl)-1H-indol-3-yl)azetidine-2-carboxamide] | 5 to 100 µM
24 | O=C1CCC[C@@H](C(=O)Nc2c[nH]c3ccc(-c4cnn(-c5ccc(C(F)(F)F)cc5)c4)cc23)N1 [Compound 221, (S)-6-oxo-N-(5-(1-(4-(trifluoromethyl)phenyl)-1H-pyrazol-4-yl)-1H-indol-3-yl)piperidine-2-carboxamide] | 1 to 5 µM
25 | CN1CC(C(=O)Nc2c[nH]c3ccc(-c4cnn(-c5ccc(C(F)(F)F)cc5)c4)cc23)C1=O (centres unmarked) [Compound 205, 1-methyl-2-oxo-N-(5-(1-(4-(trifluoromethyl)phenyl)-1H-pyrazol-4-yl)-1H-indol-3-yl)azetidine-3-carboxamide] | 1 to 5 µM
26 | COCCOCC(=O)Nc1c[nH]c2ccc(-c3cnn(-c4ccc(C(F)(F)F)cc4)c3)cc12 [Compound 217, 2-(2-methoxyethoxy)-N-(5-(1-(4-(trifluoromethyl)phenyl)-1H-pyrazol-4-yl)-1H-indol-3-yl)acetamide] | 0.2 to 1 µM
27 | O=C(Nc1c[nH]c2ccc(-c3cnn(-c4ccc(C(F)(F)F)cc4)c3)cc12)c1ccn[nH]1 [Compound 265, N-(5-(1-(4-(trifluoromethyl)phenyl)-1H-pyrazol-4-yl)-1H-indol-3-yl)-1H-pyrazole-5-carboxamide] | 0.2 to 1 µM
28 | COCCOCCC(=O)Nc1c[nH]c2ccc(-c3cnn(-c4ccc(C(F)(F)F)cc4)c3)cc12 [Compound 206, 3-(2-methoxyethoxy)-N-(5-(1-(4-(trifluoromethyl)phenyl)-1H-pyrazol-4-yl)-1H-indol-3-yl)propanamide] | 0.2 to 1 µM
29 | O=C(Nc1c[nH]c2ccc(-c3cnn(-c4ccc(C(F)(F)F)cc4)c3)cc12)C1CCC(F)(F)CC1 [Compound 237, 4,4-difluoro-N-(5-(1-(4-(trifluoromethyl)phenyl)-1H-pyrazol-4-yl)-1H-indol-3-yl)cyclohexane-1-carboxamide] | 0.2 to 1 µM
30 | O=C(Nc1c[nH]c2ccc(-c3cnn(-c4ccc(C(F)(F)F)cc4)c3)cc12)c1cocn1 [Compound 267, N-(5-(1-(4-(trifluoromethyl)phenyl)-1H-pyrazol-4-yl)-1H-indol-3-yl)oxazole-4-carboxamide] | 0.2 to 1 µM
31 | CN1CC(C(=O)Nc2c[nH]c3ccc(-c4cnn(-c5ccc(C(F)(F)F)cc5)c4)cc23)CC1=O (centres unmarked) [Compound 249, 1-methyl-5-oxo-N-(5-(1-(4-(trifluoromethyl)phenyl)-1H-pyrazol-4-yl)-1H-indol-3-yl)pyrrolidine-3-carboxamide] | 1 to 5 µM
32 | O=C(Nc1c[nH]c2ccc(-c3cnn(-c4ccc(C(F)(F)F)cc4)c3)cc12)c1ncc[nH]1 [Compound 260, N-(5-(1-(4-(trifluoromethyl)phenyl)-1H-pyrazol-4-yl)-1H-indol-3-yl)-1H-imidazole-2-carboxamide] | 5 to 100 µM
33 | CCC(=O)Nc1c[nH]c2ccc(-c3ccnn3C)cc12 [Compound 142, N-(5-(1-methyl-1H-pyrazol-5-yl)-1H-indol-3-yl)propionamide] | 1 to 5 µM
34 | O=C(Nc1c[nH]c2ccc(-c3cnn(-c4ccc(C(F)(F)F)cc4)c3)cc12)C1(O)COC1 [Compound 194, 3-hydroxy-N-(5-(1-(4-(trifluoromethyl)phenyl)-1H-pyrazol-4-yl)-1H-indol-3-yl)oxetane-3-carboxamide] | 1 to 5 µM
35 | O=C(Nc1c[nH]c2ccc(-c3cnn(-c4ccc(C(F)(F)F)cc4)c3)cc12)c1ccon1 [Compound 280, N-(5-(1-(4-(trifluoromethyl)phenyl)-1H-pyrazol-4-yl)-1H-indol-3-yl)isoxazole-3-carboxamide] | 0.2 to 1 µM
